Activity calls are given as the source filed them. Cut-off read from the data, not from the text of the source, for most assays here: actives have a measured EC50 and inactives only a lower limit.
What was measured:
Format in all cases: functional
[1] = target: T1, Replicative DNA helicase DnaB (Mycobacterium tuberculosis, UniProt P9WMR3); assay: DnaB intein splicing inhibitors, dose response, biochemical, cell-free fluorescence (AID 449749)
T1 sequence (P9WMR3 whole entry): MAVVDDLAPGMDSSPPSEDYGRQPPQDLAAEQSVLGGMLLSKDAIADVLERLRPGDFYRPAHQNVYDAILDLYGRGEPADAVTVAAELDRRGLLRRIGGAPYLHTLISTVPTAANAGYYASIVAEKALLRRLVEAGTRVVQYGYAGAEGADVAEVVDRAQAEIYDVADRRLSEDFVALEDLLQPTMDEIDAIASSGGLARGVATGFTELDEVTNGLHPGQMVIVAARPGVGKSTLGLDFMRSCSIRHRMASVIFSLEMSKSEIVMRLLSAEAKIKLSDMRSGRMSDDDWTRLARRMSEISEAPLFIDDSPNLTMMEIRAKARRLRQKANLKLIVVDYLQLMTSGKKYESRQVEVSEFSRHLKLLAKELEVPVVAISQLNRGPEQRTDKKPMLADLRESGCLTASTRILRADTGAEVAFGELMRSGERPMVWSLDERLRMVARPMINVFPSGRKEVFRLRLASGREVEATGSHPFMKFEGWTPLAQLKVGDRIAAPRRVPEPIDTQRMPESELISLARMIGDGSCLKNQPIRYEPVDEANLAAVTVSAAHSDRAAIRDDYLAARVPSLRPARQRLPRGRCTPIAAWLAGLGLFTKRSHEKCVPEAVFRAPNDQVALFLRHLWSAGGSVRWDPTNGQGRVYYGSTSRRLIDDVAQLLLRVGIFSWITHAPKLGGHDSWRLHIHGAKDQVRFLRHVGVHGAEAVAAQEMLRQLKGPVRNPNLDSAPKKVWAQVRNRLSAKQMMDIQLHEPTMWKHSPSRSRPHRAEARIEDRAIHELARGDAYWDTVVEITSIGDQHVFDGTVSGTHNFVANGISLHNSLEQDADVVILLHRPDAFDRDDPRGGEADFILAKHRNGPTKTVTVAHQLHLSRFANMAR

Protein RecA = target: T2, Protein RecA (Mycobacterium tuberculosis, UniProt P9WHJ3); assay: Fluorescence Cell-Free Homogeneous Dose Retest to Identify Inhibitors of RecA-Intein Splicing Activity. [Related pubchem assays (depositor defined):AID2097, AID2223, AID489010, AID492950]
T2 sequence (P9WHJ3 whole entry): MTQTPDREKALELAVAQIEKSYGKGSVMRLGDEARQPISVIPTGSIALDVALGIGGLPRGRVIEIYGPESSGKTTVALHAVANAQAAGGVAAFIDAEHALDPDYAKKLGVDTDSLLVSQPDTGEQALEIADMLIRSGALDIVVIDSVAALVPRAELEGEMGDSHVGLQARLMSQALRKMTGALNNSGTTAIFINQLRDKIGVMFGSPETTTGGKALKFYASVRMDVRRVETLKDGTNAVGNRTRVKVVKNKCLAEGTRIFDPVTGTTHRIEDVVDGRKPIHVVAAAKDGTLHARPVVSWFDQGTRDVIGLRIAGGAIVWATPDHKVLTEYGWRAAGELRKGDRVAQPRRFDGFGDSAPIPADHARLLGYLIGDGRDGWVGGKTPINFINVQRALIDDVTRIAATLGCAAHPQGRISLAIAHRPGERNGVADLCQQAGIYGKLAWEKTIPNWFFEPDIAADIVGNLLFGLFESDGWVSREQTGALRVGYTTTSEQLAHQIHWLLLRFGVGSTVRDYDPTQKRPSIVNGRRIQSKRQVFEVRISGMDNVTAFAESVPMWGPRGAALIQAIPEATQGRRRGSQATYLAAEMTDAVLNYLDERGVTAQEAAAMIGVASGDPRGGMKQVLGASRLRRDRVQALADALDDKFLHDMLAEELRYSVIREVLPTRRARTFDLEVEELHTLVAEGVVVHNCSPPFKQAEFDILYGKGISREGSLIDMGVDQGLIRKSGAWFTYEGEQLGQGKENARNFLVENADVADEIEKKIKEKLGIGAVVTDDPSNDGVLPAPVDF

[2] = viability of PTEN-deleted HCT116 cells – cell-based, HCT116 PTEN knockout, dose response (AID 1047);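 note: HCT116 colon tumor cells with PTEN knocked out; cells exposed to compound for 60 hours before readout; potency for loss of cell viability measured by luminescence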
[3] = viability of HCT116 lacking mutant beta-catenin – cell-based, human colon tumor, dose response (AID 1045);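 note: HCT116 colon tumor cells with beta catenin knocked out; cells exposed to compound for 60 hours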
[4] = Luminescence Cell-Based Dose Confirmation HTS to Identify Activators of 5'UTR Stem-Loop Driven Alpha-Synuclein mRNA Translation in H4 Neuroglioblastoma Cells. [Related pubchem assays: 1829 (Project Summary), 1814 (Primary HTS)]
[5] = Luminescence Cell-Based Dose Response HTS to Identify Activators of Luciferase Translation or Activity in H4 […] Cells. [Related pubchem assays: 1829 (Project Summary), 1814 (Primary HTS)]
H4 = assay: Luminescence Cell-Based Dose Response HTS to Identify Activators of 5'UTR Stem-Loop Driven Prion Protein mRNA Translation in H4 Neuroglioblastoma Cells. [Related pubchem assays: 1829 (Project Summary), 1814 (Primary HTS)]; settings: Homo sapiens
[6] = target: T3, Heat shock factor protein 1 (Mus musculus, UniProt P38532); assay: enhancement of HSF1-driven luciferase signal – cell-based, NIH3T3, luminescence, dose retest, confirmation (AID 435004);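 note: stress induced by proteasome inhibitor MG132 added 30 min after compound; luciferase reporter driven by HSF1 response element in NIH3T3 cells; actives raise luminescence as potentiators of the MG132 stress response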
T3 sequence (P38532 whole entry): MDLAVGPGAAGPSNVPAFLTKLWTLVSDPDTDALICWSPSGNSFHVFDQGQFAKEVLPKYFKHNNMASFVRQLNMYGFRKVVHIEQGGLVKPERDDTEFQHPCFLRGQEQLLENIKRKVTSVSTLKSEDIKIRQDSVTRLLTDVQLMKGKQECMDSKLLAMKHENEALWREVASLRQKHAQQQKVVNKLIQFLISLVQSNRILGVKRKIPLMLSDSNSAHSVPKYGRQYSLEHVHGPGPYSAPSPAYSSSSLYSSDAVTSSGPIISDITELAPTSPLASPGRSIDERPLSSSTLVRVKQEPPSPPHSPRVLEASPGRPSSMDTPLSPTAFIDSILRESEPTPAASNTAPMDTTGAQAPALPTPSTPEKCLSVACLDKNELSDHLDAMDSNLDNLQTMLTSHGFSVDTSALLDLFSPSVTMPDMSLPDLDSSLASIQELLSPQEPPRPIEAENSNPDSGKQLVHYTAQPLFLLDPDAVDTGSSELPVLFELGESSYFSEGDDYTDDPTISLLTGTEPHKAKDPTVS

[7] = target: T3, Heat shock factor protein 1; assay: decrease of HSF1-responsive luciferase luminescence – cell-based, NIH3T3, dose retest, confirmation (AID 2382);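 note: NIH3T3 fibroblasts with HSF1-driven luciferase reporter stressed by proteasome inhibitor MG132; luminescence from HSF1-driven luciferase expression after 8 hours of MG132 stress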

| SMILES | EC50 [2] | EC50 [3] | EC50 [4] | EC50 [5] | EC50 (H4) | other results |
| --- | --- | --- | --- | --- | --- | --- |
| Cc1ccc(N/C([S-])=C(/C(=O)c2ccc(F)cc2)[n+]2ccccc2)cc1 |  |  |  |  |  | AC50 [1]: > 380 µM (inactive); EC50 (Protein RecA): 69.7 µM (active) |
| Cc1ccc(-c2csc(NC(=O)CSc3n[nH]c4c5ccccc5nc-4n3)n2)cc1 | 24.1 µM (active) | 21.9 µM (active) |  |  |  |  |
| Cc1ccc(Cn2ccnc2C(=O)Nc2ccccc2)cc1 |  |  | 30.4 µM (active) | 58 µM (active) |  |  |
| Cc1nc2ccccc2c(=O)n1-c1ccc(Br)cn1 |  |  | > 120 µM (not active) | > 120 µM (not active) | > 120 µM (not active) |  |
| Cc1csc(SCC(=O)c2c(N)n(C)c(=O)n(C)c2=O)n1 |  |  | 2.14 µM (active) | 29.5 µM (active) | > 120 µM (not active) |  |
| CCCn1c(SCc2nc(O)c3c(C)c(C)sc3n2)nc2ccccc2c1=O | 11.8 µM (active) | 12.5 µM (active) |  |  |  | EC50 [6]: 71.9 µM (active) |
| CCCCNC(=O)Cn1nc([N+](=O)[O-])c([N+](=O)[O-])c1C |  |  | > 120 µM (not active) | 11.1 µM (active) | 35.2 µM (active) |  |
| O=C(O)c1ccc(Cn2cnc3scc(-c4ccccc4)c3c2=O)cc1 |  |  | 9.7 µM (active) | > 120 µM (not active) | > 120 µM (not active) |  |
| Cn1c(SCC(=O)N2CCCCC2)nc2c3ccccc3nc-2c1O | 22.3 µM (active) | 35.8 µM (active) |  |  |  |  |
| Cc1ccc(C(C(=O)NC2CCCC2)N(C(=O)Cc2cccs2)c2ccc3c(c2)OCCO3)cc1 (configuration not stated) | 46.5 µM (active) | 62.8 µM (active) |  |  |  |  |
| COc1ccc(C(CCN(Cc2ccc(OC)c(OC)c2)C(=O)CCl)c2ccccc2)cc1 (configuration not stated) | 3.07 µM (active) | 3 µM (active) |  |  |  | EC50 [7]: 3.19 µM (active); AC50 [1]: 1.12 µM (active); EC50 (Protein RecA): 0.269 µM (active) |
| Cc1ccc(-n2c([S-])c(C(=O)Nc3ccc(OC(F)F)cc3)[n+]3ccc(C(=O)NCCO)cc23)cc1C |  |  | 7.99 µM (active) | > 120 µM (not active) | 21.3 µM (active) |  |
| Cc1cccc(N=Nc2c[nH]nc2-c2ccco2)c1 |  |  | 29.5 µM (active) | 14.7 µM (active) | 73.5 µM (active) |  |
| Cc1ccc(C)n1-c1ccc(C(=O)Nc2ccccc2F)cc1 |  |  | 11.6 µM (active) | 43.1 µM (active) | 14.5 µM (active) |  |
| Cc1cc(C)nc(Sc2ccc3nnnn3n2)n1 |  |  | 24.7 µM (active) | 22.5 µM (active) | 11.3 µM (active) |  |
| Cc1ccc(NC2=C(C(=O)Nc3c(C)cc(C)cc3C)C(=N)C(C(=O)Nc3ccc(OC(F)(F)F)cc3)S2)cc1 (configuration not stated) | 40 µM (active) | 42.8 µM (active) |  |  |  |  |
| CCOC(=O)C/C(C)=N/NC(=O)COc1ccccc1C |  |  |  |  |  | AC50 [1]: 4.39 µM (active); EC50 (Protein RecA): 2.36 µM (active) |
| COc1ccc(/N=C2/C(=N\c3ccc(OC)cc3)N(c3ccccc3)C(=S)N2C(=O)c2ccc(Cl)cc2)cc1 |  |  | 41.1 µM (active) | 47.3 µM (active) | 18.7 µM (active) |  |
| C=C1C[C@@H]2[C@H](CC[C@]3(C)C(=O)CC[C@@H]23)[C@@]2(C)C=CC(=O)C=C12 [EXEMESTANE] |  |  | 2.79 µM (active) | 6.44 µM (active) | 26.7 µM (active) |  |

— ChEMBL document CHEMBL1201862, “PubChem BioAssay data set” (2004)
